Laboratory results taken from patent publication US9932589B2, “EML4-ALK fusion gene” (Astellas Pharma Inc., priority 2006, dated 2018).

Assays:
[1] = target: T1, NPM-ALK (Homo sapiens, UniProt Q9UM73); details: Non-Patent Document 22; cited from earlier work
T1 construct: the other entry of the earlier key: NPM1 (P06748, Nucleophosmin)

[2] = system: EML4-ALK fusion polypeptide v1; experiment: in vitro kinase activity (autophosphorylation) of purified EML4-ALK fusion polypeptide v1, immunoblotting with anti-phosphorylated ALK antibody; format: biochemical, human
Procedure: (§1) The v1 expressing BA/F3 cells (Example 5(1)) were cultured in RPM1640 medium containing 10% of fetal bovine scrum to obtain 2.7×10^9 cells. After washing 3 times with PBS, cells were lysed in a lysis solution (50 mM Tris HCl (pH7.4), 150 mM NaCl, 1% Triton×100, 5 mM EDTA, 5 mM EGTA, 1 mM NaVO4, 1 mM DTT and protease inhibitor cocktail complete). The EML4-ALK fusion polypeptide v1 present in the supernatant obtained after a centrifugation was purified using ANTI-FLAG M2 Affinity Gel (SIGMA-ALDRICH Inc) according to the method described in the product information document. For washing and elution, the washing solution (50 mM Tris.HCl (pH7.4), 250 mM NaCl, 0.05% Brij35, 1 mM EDTA, 1 mM EGTA, 1 mM NaVO4, 1 mM DTT, complete) and the elution solution (50 mM Tris.HCl (pH7.4), 150 mM NaCl, 0.05% Brij35, 1 mM DTT, 0.5 mg/mL FLAG peptide) were used, respectively. Immunoblotting using anti-ALK antibody and anti FLAG M2 antibody (SIGMA-ALDRICH Inc.) and silver staining were carried out for the eluate to detect the EML4-ALK fusion polypeptide v1.
The EML4-ALK fusion polypeptide v1 purified as described above was diluted in a reaction solution (15 mM Tris HCl (pH7.4), 0.25 mM MgCl2, 0.01% Tween-20, 2 mM DTT), and then ATP was not added or ATP 20 μM was added. The respective mixtures were reacted at room temperature for 1 hour. After the reaction, the auto phosphorylated EML4-ALK fusion polypeptide v1 and the EML4-ALK fusion polypeptide v1 were detected by immunoblotting using anti-phosphorylated ALK antibody, which recognizes specifically the product phosphorylated at the 1604th tyrosine residue of ALK, and anti-ALK antibody, and quantitated by an image analysis system (VersaDoc Imaging System; Bio-Rad Inc.). The amount of phosphorylation was calibrated by dividing the count of the autophosphorylated EML4-ALK fusion polypeptide v1 by the count of the EML4-ALK fusion polypeptide v1. As the result, the autophosphorylated EML4-ALK fusion polypeptide v1 band was detected at the location of about 130 kDa under the condition of ATP addition, and the amount of phosphorylation was increased by about 205 folds compared to no-ATP addition.
(§2) The inhibitory effect of compound A-D against the in vitro kinase activity of the EML4-ALK fusion polypeptide v1 was investigated using anti-phosphorylated ALK antibody and the kinase activity detection kit. Respective compounds were added to the reaction solution containing the EML4-ALK fusion polypeptide v1 at a final concentration of 10 μM or 10 nM, and then the reaction was carried out with or without the addition of ATP. The rest of the operations were carried out according to the method (2) described above. […] The inhibition (%) of the kinase activity of the EML4-ALK fusion polypeptide v1 by a compound was calculated by the following formula. […]

[3] = system: EML4-ALK fusion polypeptide v1; experiment: in vitro phosphorylation of peptide substrate (TK substrate 1) by EML4-ALK fusion polypeptide v1, HTRF KinEASE-TK kit; format: biochemical, human
Procedure: as §1
In addition, the phosphorylation activity toward a peptide substrate was investigated using a kinase activity detection kit (HTRF KinEASE-TK; Cisbio Inc.). Using TK substrate 1, which was included in the kit, as the substrate, and after adding no ATP or 100 μM ATP, the mixtures were reacted at room temperature for 1 hour, and the count of HTRF was detected as recommended by the Kits manufacturer. As the result it became clear that the count of HTRF (that is, phosphorylation of the peptide substrate) was increased by about 12 times by the addition of ATP compare to no addition of ATP. As shown above, the in vitro kinase activity of the EML4-ALK fusion polypeptide v1 can be detected using anti-phosphorylated ALK antibody and the kinase activity detection kit.
as §2

[4] = system: EML4-ALK fusion polypeptide v1; experiment: intracellular autophosphorylation of EML4-ALK fusion polypeptide v1 in v1 expressing BA/F3 cells; format: cell-based, human; details: 6 hours
Procedure: Compound A (1 μM, 5 μM and 10 μM) was added to the culture medium of v1 expressing BA/F3 cells (Example 5(1)) or not added, and cultured for 3 hours. In addition, BA/F3 cells expressing FLAG-EML4-ALKv1(K589M) were produced using pMX-iresCD8 vector in which EML4-ALK (K589M) was integrated so that FLAG can be added, and cultured. After culturing, cells were counted and the level of phosphorylation of tyrosine of EML4-ALK fusion polypeptide v1 was measured by immunoblotting using anti-phosphorylated ALK antibody. Further, for the same transfer membrane, immunoblotting analysis by anti-FLAG tag antibody (Eastman Kodak Inc.) was carried out, and total protein quantity of the FLAG attached EML4-ALK fusion polypeptide v1 was measured.
However, the culturing time after the addition of the compounds was 6 hours, and the total protein amount of the EML4-ALK fusion polypeptide v1 was measured using anti-ALK antibody. In addition, the amount of phosphorylation was calculated by quantitating as in Example 7(2). Also, for compound A, the amount of phosphorylation was calculated by quantitating in experiment under this condition. The rate of inhibition was calculated from the amount of phosphorylation when the compound was added, using the value when the compound was not added (the solvent of the compound, DMSO was added) as a control (0% inhibition).

[5] = target: T2, EML4-ALK fusion polypeptide v1 (Homo sapiens, UniProt Q9UM73, D1529E/I1461V/K1491R); experiment: intracellular autophosphorylation of EML4-ALK fusion polypeptide v1 in v1 expressing 3T3 cells; format: cell-based; details: NIH3T3; final concentration 10 μM, 4 hours; read-out: Inhibition on autophosphorylation (3T3cells)
T2 construct: expressed in transfected cells; host or cells: mouse 3T3 fibroblasts transfected with EML4-ALKv1/pMXS (v1 expressing 3T3 cells); for A10, grown as a subcutaneous tumour in nude mice

[6] = system: v1 expressing 3T3 cells; experiment: anchorage independent growth on spheroid plate, v1 expressing 3T3 cells; format: cell-based, mouse
Procedure: (§3) The v1 expressing 3T3 cells (Example 6(1)) and one of the human glioma cells expressing the full length ALK polypeptide and not expressing EML4-ALK fusion polynucleotide endogenously, U-87 MG cells, were seeded to a 96 well spheroid plate (Sumilon Celltight Spheroid 96U, Sumitomo Bakelite Inc.) at 3000 cells per well in a medium containing 10% fetal bovine serum (DMEM for v1 expressing 3T3 cells and RPMI 1640 for U-87MG). […] At the same time, cells were counted before the addition of drugs (Day 0). Then, cells were cultured under 5% CO2, at 37° C. for 3 days, mixed with a reagent for measuring cell number (CellTiter-Glo™ Luminescent Cell Viability Assay; Promega Inc.) stirred for 20 minutes, and the measurements (day 3) were carried out using a luminometer (ML3000 microtiter plate luminometer; Dynatech Laboratories Inc.).

[7] = system: U-87MG cells; experiment: anchorage independent growth on spheroid plate, U-87MG cells expressing full length ALK; format: cell-based, human; details: 3 days
Procedure: as §3

[8] = system: EML4-ALK fusion polynucleotide v1; experiment: siRNA inhibition of mRNA expression of EML4-ALK fusion polynucleotide v1 in v1 expressing 3T3 cells, quantitative PCR; format: cell-based, mouse; details: siRNA 20 nM, 72 hours
Procedure: (§4) The v1 expressing 3T3 cells and U-87MG cells were seeded to 12 well plates (IWAKI; Asahi techno glass corp.) at 50,000 cells and 150,000 cells, respectively. Four hours later, using a transfection reagent (Lipofectamine RNAiMax; Invitrogen Inc.), siRNA-1 to siRNA-9 were prepared to a final concentration of 20 nM and transfected to cells according to the attached instruction. In addition, as a control no siRNA transfection samples were prepared. After 72 hours, the medium was removed, and total RNA was extracted using an RNA purification kit (RNeasy Mini Kit; QIAGEN Inc.) according to the attached instruction, and cDNA was prepared using a cDNA synthesizing kit (ThermoScript RT-PCR System; Invitrogen Inc.) according to the attached instruction.
(§5) The amount of expressed mRNA of the EML4-ALK fusion polynucleotide v1 in v1 expressing 3T3 cells and the amount of mRNA of the ALK gene in U-87MG cells were quantitated using a quantitative PCR reagent (Power SYBR Green PCR Master Mix; Applied Biosystems Inc.) The PCR reaction was carried out as follows: after 10 minutes incubation at 95° C., 45 cycles of 95° C. for 15 seconds and 60° C. for 60 seconds, and then one cycle of 95° C. for 15 seconds, 60° C. for 15 seconds and 95° C. for 15 seconds to complete the reaction. In addition, to calibrate the amount of expression, the amount of expression of the mouse cyclophilin B gene and the human GAPDH gene was similarly quantitated for v1 expressing 3T3 cells and U-87MG cells, respectively. Analyses were carried out using a sequence detector (ABI PRISM 7900 Sequence Detection System; Perkin-Elmer Applied Biosystems Inc.).
(§6) Oligo nucleotides consisting of the base sequences represented by SEQ ID NO: 44 and 48, SEQ ID NO: 50 and 56, SEQ ID NO: 44 and 48 and SEQ ID NO: 12 and 13 were used as the primer sets that specifically recognize the EML4-ALK fusion polynucleotide v1, the mouse cyclophilin B gene, the human ALK gene and the human GAPDH gene. Also, to obtain a standard curve to calculate the amount of respective mRNA, PCR was performed using human genomic DNA (Clontech) as a template for EML4-ALK fusion polynucleotide v1, human ALK and human GAPDH, and using mouse genomic DNA (Clontech) as a template for mouse cyclophilin B and the aforementioned primer sets under the same condition. Since a primer set corresponding to human ALK polynucleotide exon 29 was used to detect the EML4-ALK fusion polynucleotide v1, the standard curve can be obtained using human genomic DNA. The expression amount of the EML4-ALK fusion polynucleotide v1 and the human ALK gene in respective samples was calibrated with the expression amount of the mouse cyclophilin B gene and the human GAPDH gene to obtain the calibrated expression amount.

[9] = system: human ALK gene; experiment: siRNA inhibition of mRNA expression of ALK gene in U-87MG cells, quantitative PCR; format: cell-based; details: siRNA 20 nM, 72 hours
Procedure: as §4, §5, §6

[10] = Mus musculus, NIH3T3, read-out: inhibition rate of anchorage independent growth, v1 expressing 3T3 cells

T2 sequence (Q9UM73 with tags, fused parts or gaps I1461V/K1491R/D1529E): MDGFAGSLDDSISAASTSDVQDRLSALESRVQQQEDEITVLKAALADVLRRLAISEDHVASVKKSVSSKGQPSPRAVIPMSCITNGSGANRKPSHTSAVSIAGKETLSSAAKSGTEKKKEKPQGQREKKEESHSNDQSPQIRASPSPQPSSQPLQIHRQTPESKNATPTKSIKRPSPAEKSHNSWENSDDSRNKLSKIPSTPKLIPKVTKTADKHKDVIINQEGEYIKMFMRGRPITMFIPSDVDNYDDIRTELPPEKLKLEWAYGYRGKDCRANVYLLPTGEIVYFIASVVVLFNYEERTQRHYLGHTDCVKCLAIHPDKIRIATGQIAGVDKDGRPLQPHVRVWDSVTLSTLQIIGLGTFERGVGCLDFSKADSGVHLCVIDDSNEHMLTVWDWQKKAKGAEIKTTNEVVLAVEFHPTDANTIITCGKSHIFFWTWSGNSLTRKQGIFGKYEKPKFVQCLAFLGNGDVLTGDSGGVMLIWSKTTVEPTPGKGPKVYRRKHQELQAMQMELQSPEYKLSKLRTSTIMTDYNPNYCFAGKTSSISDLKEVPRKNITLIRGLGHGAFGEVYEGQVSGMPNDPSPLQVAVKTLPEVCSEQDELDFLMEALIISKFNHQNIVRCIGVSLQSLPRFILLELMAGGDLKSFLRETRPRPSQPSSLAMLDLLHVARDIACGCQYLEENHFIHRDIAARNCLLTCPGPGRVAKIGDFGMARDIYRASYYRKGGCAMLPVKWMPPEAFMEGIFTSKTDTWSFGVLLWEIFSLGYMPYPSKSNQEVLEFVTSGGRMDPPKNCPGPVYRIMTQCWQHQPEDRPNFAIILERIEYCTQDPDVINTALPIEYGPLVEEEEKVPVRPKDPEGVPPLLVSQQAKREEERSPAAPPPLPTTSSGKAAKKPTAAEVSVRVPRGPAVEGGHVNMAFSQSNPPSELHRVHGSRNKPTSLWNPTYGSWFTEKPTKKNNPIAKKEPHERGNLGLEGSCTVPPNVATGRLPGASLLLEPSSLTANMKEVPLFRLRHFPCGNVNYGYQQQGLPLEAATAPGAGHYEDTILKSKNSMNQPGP
T1 sequence (Q9UM73 with tags, fused parts or gaps): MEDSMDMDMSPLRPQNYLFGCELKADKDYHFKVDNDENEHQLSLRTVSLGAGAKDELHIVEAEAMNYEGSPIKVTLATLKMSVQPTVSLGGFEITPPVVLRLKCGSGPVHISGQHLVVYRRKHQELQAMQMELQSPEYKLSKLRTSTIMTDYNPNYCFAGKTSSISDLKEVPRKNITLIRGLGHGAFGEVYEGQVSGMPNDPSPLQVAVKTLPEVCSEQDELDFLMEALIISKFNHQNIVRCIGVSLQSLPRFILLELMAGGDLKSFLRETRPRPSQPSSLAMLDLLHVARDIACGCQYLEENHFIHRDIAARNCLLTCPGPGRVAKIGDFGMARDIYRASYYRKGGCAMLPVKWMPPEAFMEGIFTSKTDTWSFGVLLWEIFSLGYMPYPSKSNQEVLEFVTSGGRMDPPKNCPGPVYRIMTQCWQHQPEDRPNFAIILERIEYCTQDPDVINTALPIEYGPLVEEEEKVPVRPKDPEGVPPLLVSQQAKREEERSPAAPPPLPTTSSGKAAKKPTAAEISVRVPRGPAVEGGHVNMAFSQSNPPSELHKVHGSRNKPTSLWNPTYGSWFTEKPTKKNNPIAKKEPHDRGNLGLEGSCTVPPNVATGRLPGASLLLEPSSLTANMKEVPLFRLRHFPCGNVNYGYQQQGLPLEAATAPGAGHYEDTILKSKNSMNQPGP

In the case of `COc1cc2ncnc(Nc3ccc(O)cc3)c2cc1OC` [WHI-P131, 4-(4′-Hydroxyphenyl)amino-6,7-dimethoxyquinazo line], the “activity of NPM-ALK” value [1] is listed as “inhibit the activity of NPM-ALK”.

In the case of `O=C(COc1ccc(OC(F)(F)F)cc1)NCc1nc(C(=O)NCCc2cccc(Cl)c2)cs1` [compound B, N-[2-(3-chlorophenyl)ethyl]-2-[({[4-(trifluoromethoxy)phenoxy]acetyl}amino)methyl]-1,3-thiazole-4-carboxamide], the Inhibition on autophosphorylation ([2]; final concentration 10 μM) is reported as 68%, the “Inhibition on peptide substrate” value ([3]; final concentration 10 μM) is reported as 56% and the “Inhibition on autophosphorylation (BA/F3cells)” value ([4]; final concentration 10 μM) is reported as 77%. For the same compound, the inhibition at 10 µM [5] was 49%, the inhibition at 10 µM [6, 10] was 91% and the inhibition at 10 µM ([7]; Homo sapiens, U-87 MG, 72 h, final concentration 10 μM, read-out: inhibition rate of anchorage independent growth, U-87MG cell) was 34%.

With `COc1cc(N2CCC(N3CCN(C)CC3)CC2)ccc1Nc1ncc(Cl)c(Nc2ccccc2S(=O)(=O)C(C)C)n1` [compound C, 5-chloro-N^4-[2-(isopropylsulfonyl)phenyl]-N^2-{2-methoxy-4-[4-(4-methylpiperazin-1-yl)piperidin-1-yl]phenyl}pyrimidine-2,4-diamine] the Inhibition on autophosphorylation ([2]; final concentration 10 nM) was 102%, the “Inhibition on peptide substrate” value ([3]; final concentration 10 nM) was 99% and the “Inhibition on autophosphorylation (BA/F3cells)” value ([4]; final concentration 10 nM) was 84%. The inhibition at 0.01 µM [6, 10] was 131% and the inhibition at 0.01 µM ([7]; Homo sapiens, U-87 MG, 72 h, final concentration 10 nM, read-out: inhibition rate of anchorage independent growth, U-87MG cell) was -2%.

For “siRNA-9: negative control siRNA, SEQ ID NO: 127 and 128, base sequence not present in mammalian cells (chain 1 CGGCUGCAAUCGATTGATAGC; chain 2 TATCAAUCGAUUGCAGCCGAA; chemistry not given here)”, the “anchorage independent growth of v1 expressing 3T3 cells (in words)” value ([6]; siRNA transfected, 3 days) was “did not inhibit the growth”, the “v1 expressing 3T3 cells growth inhibition rate” value ([6]; siRNA transfected, spheroid plate, 3 days) was −35% and the “growth of U-87MG cells (in words)” value ([7]; siRNA transfected) was “did not inhibit the growth”. For the same compound, the “U-87MG cell growth inhibition rate” value ([7]; siRNA transfected, spheroid plate) was −16%, the “expression inhibitory effect on the EML4-ALK fusion polynucleotide (in words)” value [8] was “did not demonstrate strong expression inhibitory effect” and the “Inhibition rate for EML4-ALK gene expression (v1 expressing 3T3 cells)” value ([8]; mRNA) was 29%. The “expression inhibitory effect on the human ALK gene (in words)” value [9] was “did not demonstrate strong expression inhibitory effect” and the “Inhibition rate for ALK gene expression (U-87 MG cells)” value ([9]; mRNA) was −31%.
